Experimental data as given in patent US5393742A, “Preparation for treating renal disease” (MECT Corporation, priority 1990, dated 1995).

System: Male ddy mice
Test: Simplified acute toxicity test of N-acetylneuraminates in mice by intravenous injection
Format: in vivo
Procedure: Simplified acute toxicity test:
A simplified acute toxicity test of N-acetylneuraminates in mice by intravenous injection was carried out as follows.
Lithium-, potassium-, barium- and magnesium- salts of N-acetylneuraminic acid were used (all were from MECT Corporation).
Body weights at the start of the test: 17.7-21.1 g
The number of animals at each level: 3 mice
(3) Room temperature: 23±1° C. - Humidity: 55±7%
The above-mentioned test compounds were dissolved in physiological saline solution to make a 0.2 ml solution per 20 g of body weight in a mouse as an injection fluid and injected into the tail vein. The doses were 500, 1,000 and 2,000 mg/kg.

| Compound | The number of deaths per day course (500 mg/kg i.v., 1 hrs) | The number of deaths per day course (500 mg/kg i.v., 3 hrs) | The number of deaths per day course (500 mg/kg i.v., 6 hrs) | The number of deaths per day course (500 mg/kg i.v., 24 hrs) | The number of deaths per day course (500 mg/kg i.v., 2 days) | The number of deaths per day course (500 mg/kg i.v., 3 days) | The number of deaths per day course (500 mg/kg i.v., 4 days) | The number of deaths per day course (500 mg/kg i.v., 5 days) | The number of deaths per day course (500 mg/kg i.v., 6 days) | Final Lethality (500 mg/kg i.v., 7 days) | The number of deaths per day course (500 mg/kg i.v., 7 days) | Final Lethality (1000 mg/kg i.v., 7 days) | The number of deaths per day course (1000 mg/kg i.v., 7 days) | The number of deaths per day course (1000 mg/kg i.v., 1 hrs) | The number of deaths per day course (1000 mg/kg i.v., 3 hrs) | The number of deaths per day course (1000 mg/kg i.v., 6 hrs) | The number of deaths per day course (1000 mg/kg i.v., 24 hrs) | The number of deaths per day course (1000 mg/kg i.v., 2 days) | The number of deaths per day course (1000 mg/kg i.v., 3 days) | Final Lethality (2000 mg/kg i.v., 7 days) | also measured |
| --- | --- | --- | --- | --- | --- | --- | --- | --- | --- | --- | --- | --- | --- | --- | --- | --- | --- | --- | --- | --- | --- |
| CC(=O)N[C@H]1[C@H]([C@H](O)[C@H](O)CO)OC(O)(C(=O)O)C[C@@H]1O (stereo partly shown) [Barium N-acetylneuraminate] | 3 | 0 | 0 | 0 | 0 | 0 | 0 | 0 | 0 | 3/3 | 0 | 3/3 | 0 | 3 | 0 | 0 | 0 | 0 | 0 | 3/3 | Deaths (in words) (500 mg/kg i.v.): all 3 of the 3 mice; The number of deaths per day course (1000 mg/kg i.v., 4 days): 0; The number of deaths per day course (1000 mg/kg i.v., 5 days): 0; The number of deaths per day course (1000 mg/kg i.v., 6 days): 0; The number of deaths per day course (2000 mg/kg i.v., 7 days): 0; The number of deaths per day course (2000 mg/kg i.v., 1 hrs): 3; The number of deaths per day course (2000 mg/kg i.v., 3 hrs): 0; The number of deaths per day course (2000 mg/kg i.v., 6 hrs): 0; The number of deaths per day course (2000 mg/kg i.v., 24 hrs): 0; The number of deaths per day course (2000 mg/kg i.v., 2 days): 0; The number of deaths per day course (2000 mg/kg i.v., 3 days): 0; The number of deaths per day course (2000 mg/kg i.v., 4 days): 0; The number of deaths per day course (2000 mg/kg i.v., 5 days): 0; The number of deaths per day course (2000 mg/kg i.v., 6 days): 0; Deaths (in words) (1,000 and 2,000 mg/kg i.v.): all of the 3 mice died |
| CC(=O)N[C@H]1[C@H]([C@H](O)[C@H](O)CO)OC(O)(C(=O)[O-])C[C@@H]1O.[Li+] (stereo partly shown) [Lithium N-acetylneuraminate] | 0 | 0 | 0 | 0 | 0 | 0 | 0 | 0 | 0 | 0/3 | 0 | 0/3 | 0 | 0 | 0 | 0 | 0 | 0 | 0 | 0/3 | The number of deaths per day course (1000 mg/kg i.v., 4 days): 0; The number of deaths per day course (1000 mg/kg i.v., 5 days): 0; The number of deaths per day course (1000 mg/kg i.v., 6 days): 0; The number of deaths per day course (2000 mg/kg i.v., 7 days): 0; The number of deaths per day course (2000 mg/kg i.v., 1 hrs): 0; The number of deaths per day course (2000 mg/kg i.v., 3 hrs): 0; The number of deaths per day course (2000 mg/kg i.v., 6 hrs): 0; The number of deaths per day course (2000 mg/kg i.v., 24 hrs): 0; The number of deaths per day course (2000 mg/kg i.v., 2 days): 0; The number of deaths per day course (2000 mg/kg i.v., 3 days): 0; The number of deaths per day course (2000 mg/kg i.v., 4 days): 0; The number of deaths per day course (2000 mg/kg i.v., 5 days): 0; The number of deaths per day course (2000 mg/kg i.v., 6 days): 0 |
| CC(=O)N[C@H]1[C@H]([C@H](O)[C@H](O)CO)OC(O)(C(=O)O)C[C@@H]1O (stereo partly shown) [Magnesium N-acetylneuraminate] | 0 | 0 | 0 | 0 | 0 | 0 | 0 | 0 | 0 | 0/3 | 0 | 3/3 | – | – | – | – | – | – | – | 3/3 | Deaths (in words) (1,000 and 2,000 mg/kg i.v.): all of the 3 mice died |
